Legend:
[1] = system: intact cynomolgus male and female monkeys; assay: Intact cynomolgus monkey model; assay type: in vivo; conditions: for serum cholesterol decrease, of the corresponding Day −3 values: males and females
Description: Intact cynomolgus male and female monkeys are used to assess of the effects of the compositions provided herein or the individual SERM or SARM compounds on hypothalamic-pituitary-gonadal axis and lipid profile. All animals are dosed via oral or nasol gavage once daily for consecutive days with either vehicle or testing articles of different doses. The first day of dosing is designated Day 1 for all animals. Blood samples are collected for analysis of LH, FSH, T, Estrodiol, total cholesterol, triglycerides, cortisol, and coagulation parameters included prothrombin time (PT) and activated partial thromboplastin time on Days −3 and end of the study.
In this model, Compound 2 was dosed at 0, 5, 50, 150, and 450 mg/kg/day for 14 days. […] In a separate study, the compound was dosed at 0, 3, 10, 30, 120, and 500 mg/kg/day for 30 days. […] Serum testosterone was suppressed in males as indicated by lower 75th, 50th, and 25th percentile values in samples from treated monkeys than vehicle controls.
In this model, Compound 1 was dosed at 0, 1, 5, and 15 mg/kg/day for 3 months.

healthy young men = conditions: cited from earlier work
[2] = system: orchidectomized male Sprague-Dawley rat; assay: Orchidectomized mature male rat model
[3] = system: ovariectomized mature female rats; assay: Ovariectomized mature female rat model; assay type: in vivo; conditions: restoration mode
Description: Ovariectomized mature female rats are used to characterize primarily bone activity of the compositions provided herein or the individual SERM or SARM compounds. A sham group is used as control. The model can be run in either maintenance mode where the animals are dosed one day after the ovariectomy or restoration mode where the animals are dosed seven to eight weeks after the surgery. The rats are scanned by dual energy x-ray absorptiometry and sorted into experimental groups based upon femoral bone mineral content (BMC). Three dosages of testing compositions/compounds are administered orally once a day for 4, 8, or 12 weeks and estradiol and testosterone are administered subcutaneously to the reference groups. Animals received subcutaneous injections of fluorochrome markers for bone histomorphometric analysis. Alizarian Red S was prepared as a 3% solution and given at a dose of 30 mg/kg at the time of the baseline scan. Calcein was administered 10 days and 3 days prior to necropsy.
Approximately 24 hours after the last dose, blood is collected and the gastrocnemius muscle, plantaris muscle, uterus, clitoral glands, clitoris and inguinal fat pads were isolated, blotted and weighed individually. The left femur and lumbar vertebra L5 are wrapped in saline-soaked gauze and stored at −20° C. for biochemical analysis. The right femur and lumbar vertebrae L3-L4 are collected and stored in 70% ethanol for histomorphometry. The right tibia is collected in formalin for histological analysis. The left tibia is collected on dry ice and stored at −20° C. for measurement of alkaline phosphatase activity.
BMC, bone mineral density (BMD) and bone length are measured by pDEXA on an entire femur. The coefficient of variation for repeated measurement of the isolated femur is less than 0.4% for the BMC and the BMD measurements. […] Serum osteocalcin, a marker for bone turnover, and alkaline phosphatase derived from the tibial periosteum are also measured. Whole femurs are collected for biomechanical analysis and thawed at room temperature prior to testing. Peak load and peak displacement are measured directly from the load cell and the crosshead, respectively. Stiffness is calculated from the slope of the linear region of the load/displacement curve. Lumbar vertebra L5 is also measured in the mechanical testing for bone strength.
Bone histomorphometry is performed to indicate growth of the new bone during the study. The section from the lumbar vertebral bodies is used for histomorphometric indices of cancellous bone, while the sections of the femur mid-shafts are used for histomorphometric indices of cortical bone.
Body weight, gastrocnemius weight and plantaris weight changes are measured indicating anabolic activity of the testing compositions/compounds on skeletal muscle. Inguinal fat pad weight is used as a representative fat pad to assess the effects of the testing compounds on body fat. Clitoral gland and clitoral weights are measured to assess the virilizing effect of drugs.
In the maintenance node of this model, (5R,6S)-6-phenyl-5-[4-(2-pyrrolidin-1-ylethoxy)phenyl]-5,6,7,8-tetrahydronaphthalen-2-ol (Compound 1) was dosed daily at 0 (sham), 0 (OVX), 0.01, 0.05, and 0.25 mg/kg for 8 weeks and 17α-ethynylestradiol was dosed at 0.03 mg/kg/day. […] Micro-computerized tomography (uCT) measured the density and connectivity of the trabecular bone in the femur and pQCT measured at the distal femur.
In the restoration mode of this osteopenic female rat model, 4-(2(R)-(1(S)-hydroxyl-2,2,2-trifluoroethyl)-pyrrolidinyl)-2-trifluoromethylbenzonitrile (Compound 2, Formula I, R^1═CF3, R^2═R^3═H) was dosed at 0 (sham), 0 (OVX), 0.03, 0.3, and 3 mg/kg orally for 12 weeks. […] Compound 2 suppressed cancellous bone turnover while increasing trabecular bone volume and increasing bone mineral density at the lumbar spine.
In the same experiment of Compound 2, another SARM compound, ostarine, was dosed at 0.03, 0.3, and 3 mg/kg/day orally for 12 weeks.

[4] = females, 3 to 500 mg/kg/day for 30 days
[5] = 0.03, 0.3, 3 mg/kg orally for 12 weeks

Structure (SMILES): N#Cc1ccc(N2CCC[C@@H]2[C@H](O)C(F)(F)F)cc1C(F)(F)F [Compound 2, 4-(2(R)-(1(S)-hydroxyl-2,2,2-trifluoroethyl)-pyrrolidinyl)-2-trifluoromethylbenzonitrile]
- triglycerides ([1]; Day 14, 5 to 450 mg/kg/day for 14 days): without dose dependent changes
- serum cholesterol decrease, of the corresponding Day −3 values ([1]; Day 14, 5 mg/kg/day for 14 days): 71%
- serum cholesterol decrease, of the corresponding Day −3 values ([1]; Day 14, 50 mg/kg/day for 14 days): 81%
- serum cholesterol decrease, of the corresponding Day −3 values ([1]; Day 14, 150 mg/kg/day for 14 days): 79%
- serum cholesterol decrease, of the corresponding Day −3 values ([1]; Day 14, 450 mg/kg/day for 14 days): 84%
- effect on the hypothalamic-pituitary-gonadal axis ([1]; female and male monkeys, 3 to 500 mg/kg/day for 30 days): suppressive effect
- serum FSH [1, 4]: significantly suppressed
- serum estradiol [1, 4]: significantly suppressed
- serum testosterone ([1]; males, lower 75th, 50th, 25th percentile values than vehicle controls, 30 days): suppressed
- serum FSH ([1]; sentence follows the male results, 30 days): not significantly altered
- safety and pharmacokinetic profiles (healthy young men): favorable safety and pharmacokinetic profiles
- exposure versus dose ([2]; 0.03 to 100 mg/kg/day for 14 days, rat): dose proportional exposure
- efficacy (relative to sham) in sex accessory and sebaceous glands ([2]; at doses that maintained levator ani weights at sham equivalent levels): lower efficacy
- serum LH ([2]; at high doses): suppressed serum LH below sham-equivalent levels
- AUC24 ([2]; at the dose of 2 mg/kg/day, rat): 0.2
- activity in musculoskeletal endpoints ([2]; restoration mode, 0.03 to 100 mg/kg/day for 14 days): positive activity
- dose reducing the elevated LH levels in castrate rats ([2]; restoration mode, 14 days): ≥ 10 mg/kg/day
- dose that maintained levator ani weight at sham-equivalent levels ([2]; restoration mode, 14 days): 2 mg/kg/day
- tissue selectivity toward the muscle endpoint ([2]; restoration mode, 14 days): tissue selective activity
- activity on the clitoral gland, clitoris or uterus relative to testosterone ([3]; 0.3 mg/kg/day dose): reduced activity
- efficacy on muscle and bone compared with testosterone ([3]; 0.3 mg/kg/day dose): more efficacious
- bone mineral density at the lumbar spine [3, 5]: increasing
- cancellous bone turnover [3, 5]: suppressed
- cortical bone mass, density, strength, stiffness and periosteal bone formation rates [3, 5]: significantly increased
- gastrocnemius muscle weight, plantaris muscle weight and body weight [3, 5]: increased
- inguinal fat pad weight [3, 5]: without affecting
- trabecular bone volume [3, 5]: increasing

— patent US10874638B2, “Methods and compositions for modulating hormone levels” (priority 2014, dated 2020)
